Assay results reported in patent US20240286998A1, “F[…], ANALOGUES THEREOF, AND METHODS USING SAME” (Saint Joseph's University, priority 2021, published 2024).
Read-outs that look alike come from different tables or passages of the source.

Tests used:
5-HT2C = 5-HT2C (Homo sapiens (Human), UniProt P28335); test: 5-HT2C Gq-mediated calcium flux functional assay; format: cell-based
5-HT2A = 5-HT2A (Homo sapiens (Human), UniProt P28223); test: 5-HT2A Gq-mediated calcium flux functional assay; format: cell-based
Serotonin 5-HT2A (human) = Serotonin 5-HT2A (human) (Homo sapiens (Human), UniProt P28223); test: 5-HT2A receptor binding, [3H]-ketanserin competition in membrane fractions; conditions: 1 nM [3H]-ketanserin, Cheng-Prusoff, N=1-3
C57BL/6J mice = test: Head-Twitch Response (HTR) in mice; format: in vivo; conditions: for ED50: Mus musculus, ip, 0.5 h; for Duration of HTR above baseline: C57BL/6J mice, ascending and descending arm dose; for HTR counts over baseline / induction of HTR: compared to vehicle
Protocol: Male C57BL/6J mice (6-8 weeks old) were obtained from Jackson Laboratories (Bar Harbor, ME) and housed in a vivarium at the University of California San Diego, an AAALAC-approved animal facility that meets all federal and state requirements for care and treatment of laboratory animals. All animal experiments were carried out in accordance with NIH guidelines and were approved by the UCSD Institutional Animal Care and Use Committee. Mice were housed up to four per cage in a climate-controlled room on a reverse-light cycle (lights on at 1900 h, off at 0700 h). Animals were provided with ad libitum access to food and water, with the exception of during behavioral testing.
Testing was conducted between 1000 and 1800 h. Head movements were recorded using a head-mounted magnet and a magnetometer coil as described in Halberstadt et al. (Psychopharmacology, 2013, 227(4):727-739). For the head mounted magnet, mice were anesthetized, an incision was made in the scalp, and a neodymium magnet was attached to the dorsal surface of the cranium using dental cement. Following a 2-week recovery period, behavioral experiments were conducted in a well-lit room. At least 7 days occurred between sessions to avoid any carryover effects. Test substances (i.e., dimethyltryptamine (DMT), diethyltryptamine (DET), psilocybin, 6-fluoro-diethyltryptamine (6-F-DET), compounds 3-4, 6, 9, 12-13, 22, 33, 41, 69, 88, 166, and 178) were administered intraperitoneally (IP) at a volume of 5 mL/kg. Mice were treated with vehicle (saline) or 6 doses of the test compound and then placed in a glass cylinder surrounded by a magnetometer coil and tested for 30 min. Coil voltage was filtered (1 kHz lowpass), digitized (20 kHz sampling rate) and saved to disk using a Powerlab/8SP with LabChart v 7.3.2 (ADInstruments, Colorado Springs, CO).
The entire 30 min recordings were examined for head twitches. Established procedures based on artificial intelligence were used to identify head twitches in the recordings (Scientific Reports, 2020, 10(1):1-12). HTR counts were analyzed using one-way analyses of variance (ANOVA), followed by post hoc pairwise comparisons between individual groups and vehicle using Dunnett's multiple comparisons test. […] Median effective doses (ED50 values) and 95% confidence intervals (95% CI) were calculated using nonlinear regression (Prism 9.0.2, GraphPad Software, San Diego, CA) (Table 4 and FIGS. 1-3).

5-HT2B = 5-HT2B (Homo sapiens (Human), UniProt P41595); test: 5-HT2B Gq-mediated calcium flux functional assay; format: cell-based
5-HT1A = 5-HT1A (Homo sapiens (Human), UniProt P08908); test: 5-HT1A Gi/o-mediated cAMP inhibition, GloSensor assay; format: cell-based; conditions: for 5-HT1A-cAMP Emax (% 5-HT): cAMP inhibition, 0.2 μM isoproterenol, IA = Inactive
[1] = read-out: HTR ED50 μmol/kg (95% CI)
[2] = read-out: HTR ED50 mg/kg (95% CI)
[3] = IA = Inactive, N=1-3, read-out: 5-HT2C-Ca2+ FLUX pEC50 (converted)
[4] = IA = Inactive, N=1-3, read-out: 5-HT2A-Ca2+ FLUX pEC50 (converted)
[5] = IA = Inactive, N=1-3, read-out: 5-HT2B-Ca2+ FLUX pEC50 (converted)

Sequence of 5-HT2B (P41595 whole entry): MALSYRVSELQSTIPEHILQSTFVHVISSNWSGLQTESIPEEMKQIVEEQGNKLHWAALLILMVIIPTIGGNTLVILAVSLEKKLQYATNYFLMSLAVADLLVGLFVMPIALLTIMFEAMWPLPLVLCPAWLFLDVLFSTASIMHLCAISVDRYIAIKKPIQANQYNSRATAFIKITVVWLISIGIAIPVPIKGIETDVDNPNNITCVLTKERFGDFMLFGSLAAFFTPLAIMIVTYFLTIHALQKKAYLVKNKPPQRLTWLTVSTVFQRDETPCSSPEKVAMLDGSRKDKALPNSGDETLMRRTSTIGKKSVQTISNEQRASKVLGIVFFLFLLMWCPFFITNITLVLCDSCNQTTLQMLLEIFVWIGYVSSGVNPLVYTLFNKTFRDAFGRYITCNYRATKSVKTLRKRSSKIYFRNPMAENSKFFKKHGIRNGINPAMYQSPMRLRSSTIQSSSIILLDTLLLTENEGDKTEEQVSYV
Sequence of 5-HT2C (P28335 whole entry, looked up): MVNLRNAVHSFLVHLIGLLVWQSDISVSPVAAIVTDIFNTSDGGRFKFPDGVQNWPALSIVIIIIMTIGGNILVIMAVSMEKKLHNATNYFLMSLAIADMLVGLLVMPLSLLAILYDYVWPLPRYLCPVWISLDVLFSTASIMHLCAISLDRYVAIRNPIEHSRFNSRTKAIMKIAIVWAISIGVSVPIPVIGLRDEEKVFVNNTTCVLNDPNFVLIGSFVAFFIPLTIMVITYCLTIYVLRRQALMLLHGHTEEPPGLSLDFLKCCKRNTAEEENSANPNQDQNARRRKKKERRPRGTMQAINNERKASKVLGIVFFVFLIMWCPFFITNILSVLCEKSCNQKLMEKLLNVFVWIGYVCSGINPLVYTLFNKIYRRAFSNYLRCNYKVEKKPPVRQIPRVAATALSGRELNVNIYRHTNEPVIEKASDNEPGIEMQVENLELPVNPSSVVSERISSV

Row | Structure (SMILES) | EC50 (5-HT2C) | 5-HT2C-Ca2+ FLUX Emax (% 5-HT) (5-HT2C; IA = Inactive, N=1-3) | EC50 (5-HT2A) | 5-HT2A-Ca2+ FLUX Emax (% 5-HT) (5-HT2A; IA = Inactive, N=1-3) | 5-HT2A pKi ± SEM (Serotonin 5-HT2A (human)) | ED50 (C57BL/6J mice; [1]) | ED50 (C57BL/6J mice; [2]) | EC50 (5-HT2B) | 5-HT2B-Ca2+ FLUX Emax (% 5-HT) (5-HT2B; IA = Inactive, N=1-3) | EC50 (5-HT2C; [3]) | EC50 (5-HT1A) | 5-HT1A-cAMP Emax (% 5-HT) (5-HT1A) | melting point | Duration of HTR above baseline (C57BL/6J mice) | HTR counts over baseline / induction of HTR (C57BL/6J mice) | EC50 (5-HT2A; [4]) | EC50 (5-HT2B; [5])
1 | CCCN(CC)CCc1c[nH]c2c(F)cc(C)cc12 [compound 166, N-ethyl-N-(2-(7-fluoro-5-methyl-1H-indol-3-yl)ethyl)propan-1-amine] | 200 nM | 94.6 ± 1.7 % 5-HT | 18.2 nM | 98.1 ± 0.7 % 5-HT | 5.96 ± 0.25 | 6.56 µmol/kg | 1.96 mg/kg | 33.1 nM | 95.9 ± 0.7 % 5-HT |  |  |  |  |  |  |  | 
2 | CN1CC(c2c[nH]c3ccc(F)cc23)C1 [compound 29, 5-fluoro-3-(1-methylazetidin-3-yl)-1H-indole] |  | 28.5 ± 0.8 % 5-HT |  |  | 6.30 |  |  |  |  | 49 nM | 851 nM | 64.0 ± 3.5 % 5-HT | 119 to 122.8 °C |  |  |  | 
3 | CN1CCC[C@@H]1Cc1c[nH]c2ccc(F)cc12 [compound 28, (R)-5-fluoro-3-((1-methylpyrrolidin-2-yl)methyl)-1H-indole] | 1.74 nM | 92.8 ± 0.9 % 5-HT | 2.34 nM | 91.1 ± 2.5 % 5-HT | 7.19 ± 0.03 |  |  | 0.724 nM | 90.8 ± 1.1 % 5-HT |  | 72.4 nM | 101.20 ± 1.7 % 5-HT | 127.6 to 131.7 °C |  |  |  | 
4 | CN(C)CCc1c[nH]c2ccccc12 [DMT, dimethyl tryptamine, reference compound] |  |  |  |  |  |  |  |  |  |  |  |  |  | about 10 minutes |  |  | 
5 | CN1CCC[C@H]1Cc1c[nH]c2ccc(F)cc12 [compound 27, (S)-5-fluoro-3-((1-methylpyrrolidin-2-yl)methyl)-1H-indole] | 56.2 nM | 18.5 ± 0.7 % 5-HT | 58.9 nM | 34.4 ± 2.3 % 5-HT | 5.57 |  |  | 14.1 nM | 35.3 ± 1.3 % 5-HT |  | 562 nM | 88.2 ± 3.6 % 5-HT | 135 to 136.4 °C |  |  |  | 
6 | C=CC(C)N(C)CCc1c[nH]c2ccc(F)cc12 (centres unmarked) [compound 178, N-(2-(5-fluoro-1H-indol-3-yl)ethyl)-N-methylbut-3-en-2-amine] | 15.8 nM | 87.4 ± 1.5 % 5-HT | 5.37 nM | 84.7 ± 1.2 % 5-HT | 6.25 | 3.53 µmol/kg | 0.87 mg/kg | 5.5 nM | 27.7 ± 0.5 % 5-HT |  |  |  |  |  |  |  | 
7 | CCN(CC)CCc1c[nH]c2cccc(F)c12 [Example 8, N,N-diethyl-2-(4-fluoro-1H-indol-3-yl)ethan-1-amine] |  |  |  |  | 6.09 |  |  |  |  |  |  |  |  |  | inactive |  | 
8 | CCN(C)CCc1c[nH]c2c(F)cc(F)cc12 [compound 69, 2-(5,7-difluoro-1H-indol-3-yl)-N-ethyl-N-methylethan-1-amine] |  |  |  |  | 6.90 ± 0.002 | 4.81 µmol/kg | 1.32 mg/kg |  |  |  |  |  |  |  |  |  | 
9 | CCCN(CC)CCc1c[nH]c2c(F)cc(OC)cc12 [compound 41, N-ethyl-N-(2-(7-fluoro-5-methoxy-1H-indol-3-yl)ethyl)propan-1-amine] |  |  |  |  | 6.15 ± 0.34 | 3.56 µmol/kg | 1.12 mg/kg |  |  |  |  |  |  |  |  |  | 
10 | CN(CCc1c[nH]c2ccc(F)cc12)C1CCC1 [compound 51, N-(2-(5-fluoro-1H-indol-3-yl)ethyl)-N-methylcyclobutanamine] |  |  |  |  | 6.80 ± 0.02 |  |  |  |  |  |  |  | 219.4 to 219.7 °C |  |  |  | 
11 | CN1CCC(c2c[nH]c3cc(F)c(F)cc23)C1 (centres unmarked) [compound 19, 5,6-difluoro-3-(1-methylpyrrolidin-3-yl)-1H-indole] |  | 70.5 ± 2.3 % 5-HT |  | 53.3 ± 3.6 % 5-HT | 6.92 |  |  |  | 32.2 ± 2.2 % 5-HT | 3.63 nM | 2950 nM | 113.3 ± 4.0 % 5-HT | 119.5 to 120.3 °C |  |  | 3.89 nM | 1.51 nM
12 | CCN(CCc1c[nH]c2ccc(F)cc12)C1CCC1 [compound 31, N-ethyl-N-(2-(5-fluoro-1H-indol-3-yl)ethyl)cyclobutanamine] | 57.5 nM | 98.0 ± 1.9 % 5-HT | 2.04 nM | 104.5 ± 1.8 % 5-HT | 6.26 ± 0.32 |  |  | 2.51 nM | 96.5 ± 1.4 % 5-HT |  | 22.4 nM | 100.7 ± 1.8 % 5-HT | 89.4 to 90.3 °C |  |  |  | 
13 | CCN(C)CCc1c[nH]c2c(F)c(F)c(F)cc12 [compound 164, N-ethyl-N-methyl-2-(5,6,7-trifluoro-1H-indol-3-yl)ethan-1-amine] | 18.6 nM | 89.3 ± 1.3 % 5-HT | 6.46 nM | 76.1 ± 1.1 % 5-HT | 6.90 ± 0.13 |  |  | 6.17 nM | 33.2 ± 0.9 % 5-HT |  |  |  | 212.1 to 212.5 °C |  |  |  | 
14 | CCN(CCc1c[nH]c2ccc(F)cc12)C(C)C [Example 1, N-ethyl-N-(2-(5-fluoro-1H-indol-3-yl)ethyl)propan-2-amine] | 6.61 nM | 107.6 ± 2.3 % 5-HT | 1.35 nM | 102.6 ± 0.8 % 5-HT | 5.95 ± 0.07 |  |  | 1.32 nM | 100.0 ± 0.6 % 5-HT |  | 589 nM | 86.4 ± 2.6 % 5-HT | 77.1 to 78.1 °C |  |  |  | 
15 | CCCN(CC)CC(=O)c1c[nH]c2ccc(F)cc12 [compound 24, 2-(ethyl(propyl)amino)-1-(5-fluoro-1H-indol-3-yl)ethan-1-one] |  |  |  | 81.0 ± 2.4 % 5-HT |  |  |  |  |  |  | 0.49 nM | 20.5 ± 1.4 % 5-HT | 203.4 to 205.6 °C |  |  | 1410 nM | 
16 | CN1CCC(c2c[nH]c3c(F)cccc23)C1 (centres unmarked) [compound 23, 7-fluoro-3-(1-methylpyrrolidin-3-yl)-1H-indole] |  | 26.6 ± 1.1 % 5-HT |  | 41.8 ± 1.6 % 5-HT | 6.43 |  |  |  | 19.7 ± 0.8 % 5-HT | 20.9 nM | 22.4 nM | 99.2 ± 1.7 % 5-HT | 129 to 132.1 °C |  |  | 8.51 nM | 4.37 nM
17 | CCN(C)CCc1c[nH]c2c(F)cc(OC)cc12 [compound 88, N-ethyl-2-(7-fluoro-5-methoxy-1H-indol-3-yl)-N-methylethan-1-amine] | 20.4 nM | 86.8 ± 1.4 % 5-HT | 1.95 nM | 90.6 ± 0.8 % 5-HT | 6.71 ± 0.31 | 1.95 µmol/kg | 0.56 mg/kg | 5.62 nM | 37.5 ± 0.7 % 5-HT |  |  |  |  |  |  |  | 
18 | CN(C)CCc1c[nH]c2cccc(O)c12 [psilocin, reference compound] |  |  |  |  |  |  |  |  |  |  |  |  |  | about 35 minutes |  |  | 
19 | CCN(CC)CCc1c[nH]c2cc(F)ccc12 [6-F-DET, 6-fluoro-N,N-diethyltryptamine, reference compound] |  |  |  |  |  |  |  |  |  |  |  |  |  |  | inactive |  | 
